Data: patent US10021877B2, “Substituted 5-hydroxy-2,3-diphenylpentanonitrile derivatives, processes for their preparation and their use as herbicides and/or plant growth regulators” (BAYER CROPSCIENCE AKTIENGESELLSCHAFT, priority 2013, dated 2018)

Tested on: PHBPU=Pharbitis purpurea
Assay: Biological tests (herbicidal action) against PHBPU
Assay type: in vivo
Settings: application rate 320 g/ha
Excerpt: Seeds of monocotyledonous and dicotyledonous weed plants and crop plants were placed in wood-fibre pots in sandy loam and covered with soil. The compounds (I) according to the invention, formulated in the form of wettable powders (WP), were then applied as aqueous suspension or emulsion at a water application rate of 600 l/ha (converted) with the addition of 0.2% of wetting agent to the surface of the covering soil.
After the treatment, the pots were placed in a greenhouse and kept under good growth conditions for the test plants. After about 3 weeks, the effect was scored visually in comparison with untreated controls as percentages. For example, 100% activity=the plants have died, 50% herbicidal activity or damage=the plants have been reduced by 50% or the plant mass has been reduced by 50%, 0% activity=like control plants.
Seeds of monocotyledonous and dicotyledonous weeds and crop plants were placed in sandy loam in wood-fibre pots, covered with soil and cultivated in a greenhouse under good growth conditions. […]
What was determined was the respective herbicidal activity, in each case at the same point in time after application of the formulation in question. i.e. the damage to the respective harmful plant in %.

Compound | herbicidal activity against PHBPU [%]
N#C[C@@H](c1cccc(F)c1)[C@@H](CCO)c1ccc(Cl)cc1 [threo-1-Iba354] | 80
CC(=O)OCCC(c1cc(F)ccc1F)C(C#N)c1ccc(F)c(Br)c1 (mixture of isomers) [Ibb52] | 100
